Literature values in US7479481B2, “Treatment of ocular diseases and disorders using lantibiotic compositions” (Molichem Medicines, Inc., priority 2004, dated 2009).

Test system: clatharin-coated vesicle acidification
Details: clatharin-coated vesicles; Stone et al., J. Biol. Chem. 259: 2701-2703 (1984)

duramycin
inhibition of the proton translocation facilitated by chloride translocation: up to 50%
